Columns and labels:
[1] = tested on: HeLa-MaTu-ADR; assay: Proliferation assay (crystal violet), HeLa-MaTu-ADR; type: cell-based; settings: 96 h, 4 days, read-out: Inhibition of proliferation IC50 HeLa-MaTu-ADR
Procedure: (§1) Cultivated tumor cells (cells were ordered from ATCC, except HeLa-MaTu and HeLa-MaTu-ADR, which were ordered from EPO-GmbH, Berlin) were plated at a density of 1000 to 5000 cells/well, depending on the growth rate of the respective cell line, in a 96-well multititer plate in 200 μL of their respective growth medium supplemented 10% fetal calf serum. After 24 hours, the cells of one plate (zero-point plate) were stained with crystal violet (see below), while the medium of the other plates was replaced by fresh culture medium (200 μl), to which the test substances were added in various concentrations (0 μM, as well as in the range of 0.001-10 μM; the final concentration of the solvent dimethyl sulfoxide was 0.5%). The cells were incubated for 4 days in the presence of test substances. Cell proliferation was determined by staining the cells with crystal violet: the cells were fixed by adding 20 μl/measuring point of an 11% glutaric aldehyde solution for 15 minutes at room temperature. After three washing cycles of the fixed cells with water, the plates were dried at room temperature. The cells were stained by adding 100 μl/measuring point of a 0.1% crystal violet solution (pH 3.0). After three washing cycles of the stained cells with water, the plates were dried at room temperature. The dye was dissolved by adding 100 μl/measuring point of a 10% acetic acid solution. Absorption was determined by photometry at a wavelength of 595 nm. The change of cell number, in percent, was calculated by normalization of the measured values to the absorption values of the zero-point plate (=0%) and the absorption of the untreated (0 μm) cells (=100%). The IC50 values were determined by means of a 4 parameter fit.

[2] = tested on: NCI-H460; assay: Proliferation assay (crystal violet), NCI-H460; type: cell-based; settings: Homo sapiens, 96 h; NCI-H460, 4 days; read-out: Inhibition of proliferation IC50 NCI-H460
Procedure: as §1

[3] = tested on: DU145; assay: Proliferation assay (crystal violet), DU145; type: cell-based; settings: Homo sapiens, DU-145, 96 h; DU145, 4 days; read-out: Inhibition of proliferation IC50 DU145
Procedure: as §1

[4] = tested on: Caco2; assay: Proliferation assay (crystal violet), Caco2; type: cell-based; settings: Homo sapiens, Caco-2, 96 h; Caco2, 4 days; read-out: Inhibition of proliferation IC50 Caco2
Procedure: as §1

[5] = tested on: B16F10; assay: Proliferation assay (crystal violet), B16F10; type: cell-based; settings: Mus musculus, B16-F10, 96 h; B16F10, 4 days; read-out: Inhibition of proliferation IC50 B16F10
Procedure: as §1

[6] = molecular target: 456 kinases (of these 395 non-mutant kinases) (Homo sapiens, UniProt O15111); assay: Kinase Profiling (KINOMEscan); type: binding; settings: IKK-alpha; 10 μM
[7] = molecular target: 456 kinases (of these 395 non-mutant kinases) (Homo sapiens, UniProt O15530); assay: Kinase Profiling (KINOMEscan); type: binding; settings: PDPK1; 10 μM
[8] = molecular target: 456 kinases (of these 395 non-mutant kinases) (Homo sapiens, UniProt O43353); assay: Kinase Profiling (KINOMEscan); type: binding; settings: RIPK2; 10 μM
[9] = molecular target: 456 kinases (of these 395 non-mutant kinases) (Homo sapiens, UniProt P00519, M351T); assay: Kinase Profiling (KINOMEscan); type: binding; settings: ABL1(M351T)-phosphorylated; 10 μM
[10] = molecular target: 456 kinases (of these 395 non-mutant kinases) (Homo sapiens, UniProt P00533, L861Q); assay: Kinase Profiling (KINOMEscan); type: binding; settings: EGFR(L861Q); 10 μM
[11] = molecular target: 456 kinases (of these 395 non-mutant kinases) (Homo sapiens, UniProt P28482); assay: Kinase Profiling (KINOMEscan); type: binding; settings: ERK2; 10 μM
456 kinases (of these 395 non-mutant kinases) (Homo sapiens, UniProt P28482), sequence (P28482 2-360 limits assumed, change not shown): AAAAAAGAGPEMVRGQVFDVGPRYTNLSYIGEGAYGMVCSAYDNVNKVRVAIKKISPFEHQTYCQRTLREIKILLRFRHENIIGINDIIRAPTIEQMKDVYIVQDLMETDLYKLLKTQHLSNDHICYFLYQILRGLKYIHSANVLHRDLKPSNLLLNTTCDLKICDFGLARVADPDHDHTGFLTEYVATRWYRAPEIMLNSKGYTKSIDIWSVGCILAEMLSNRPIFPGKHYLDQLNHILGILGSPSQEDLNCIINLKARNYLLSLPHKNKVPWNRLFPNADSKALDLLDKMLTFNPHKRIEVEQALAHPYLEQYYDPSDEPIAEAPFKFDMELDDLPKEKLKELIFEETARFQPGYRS

[12] = molecular target: 456 kinases (of these 395 non-mutant kinases) (Homo sapiens, UniProt P29376); assay: Kinase Profiling (KINOMEscan); type: binding; settings: LTK; 10 μM
456 kinases (of these 395 non-mutant kinases) (Homo sapiens, UniProt P29376), sequence (P29376 17-864 limits assumed, change not shown): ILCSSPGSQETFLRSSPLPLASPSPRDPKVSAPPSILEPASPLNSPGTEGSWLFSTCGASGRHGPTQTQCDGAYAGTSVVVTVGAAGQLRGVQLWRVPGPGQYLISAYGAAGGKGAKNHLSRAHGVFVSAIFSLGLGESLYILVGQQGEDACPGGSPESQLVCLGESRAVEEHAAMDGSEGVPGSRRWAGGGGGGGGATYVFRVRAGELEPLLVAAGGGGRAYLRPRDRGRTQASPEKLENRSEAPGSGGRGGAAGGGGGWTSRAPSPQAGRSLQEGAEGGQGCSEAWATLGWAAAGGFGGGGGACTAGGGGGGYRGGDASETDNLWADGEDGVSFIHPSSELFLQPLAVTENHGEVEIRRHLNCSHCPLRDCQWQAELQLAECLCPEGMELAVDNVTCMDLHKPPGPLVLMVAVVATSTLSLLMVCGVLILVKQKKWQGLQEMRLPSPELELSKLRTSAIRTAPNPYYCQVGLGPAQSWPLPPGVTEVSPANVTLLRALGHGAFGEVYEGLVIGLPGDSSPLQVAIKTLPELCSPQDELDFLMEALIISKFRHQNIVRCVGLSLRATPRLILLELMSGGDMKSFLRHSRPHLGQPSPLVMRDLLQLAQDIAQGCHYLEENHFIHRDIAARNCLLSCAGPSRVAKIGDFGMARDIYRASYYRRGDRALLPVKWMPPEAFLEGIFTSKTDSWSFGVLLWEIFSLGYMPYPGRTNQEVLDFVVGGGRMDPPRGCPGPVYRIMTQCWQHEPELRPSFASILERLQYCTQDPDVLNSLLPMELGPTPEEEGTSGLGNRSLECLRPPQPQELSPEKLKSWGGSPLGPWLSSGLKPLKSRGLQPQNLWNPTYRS

[13] = molecular target: 456 kinases (of these 395 non-mutant kinases) (Homo sapiens, UniProt P32298); assay: Kinase Profiling (KINOMEscan); type: binding; settings: GRK4; 10 μM
[14] = molecular target: 456 kinases (of these 395 non-mutant kinases) (Homo sapiens, UniProt P35968); assay: Kinase Profiling (KINOMEscan); type: binding; settings: VEGFR2; 10 μM
456 kinases (of these 395 non-mutant kinases) (Homo sapiens, UniProt P35968), sequence (P35968 20-1356 limits assumed, change not shown): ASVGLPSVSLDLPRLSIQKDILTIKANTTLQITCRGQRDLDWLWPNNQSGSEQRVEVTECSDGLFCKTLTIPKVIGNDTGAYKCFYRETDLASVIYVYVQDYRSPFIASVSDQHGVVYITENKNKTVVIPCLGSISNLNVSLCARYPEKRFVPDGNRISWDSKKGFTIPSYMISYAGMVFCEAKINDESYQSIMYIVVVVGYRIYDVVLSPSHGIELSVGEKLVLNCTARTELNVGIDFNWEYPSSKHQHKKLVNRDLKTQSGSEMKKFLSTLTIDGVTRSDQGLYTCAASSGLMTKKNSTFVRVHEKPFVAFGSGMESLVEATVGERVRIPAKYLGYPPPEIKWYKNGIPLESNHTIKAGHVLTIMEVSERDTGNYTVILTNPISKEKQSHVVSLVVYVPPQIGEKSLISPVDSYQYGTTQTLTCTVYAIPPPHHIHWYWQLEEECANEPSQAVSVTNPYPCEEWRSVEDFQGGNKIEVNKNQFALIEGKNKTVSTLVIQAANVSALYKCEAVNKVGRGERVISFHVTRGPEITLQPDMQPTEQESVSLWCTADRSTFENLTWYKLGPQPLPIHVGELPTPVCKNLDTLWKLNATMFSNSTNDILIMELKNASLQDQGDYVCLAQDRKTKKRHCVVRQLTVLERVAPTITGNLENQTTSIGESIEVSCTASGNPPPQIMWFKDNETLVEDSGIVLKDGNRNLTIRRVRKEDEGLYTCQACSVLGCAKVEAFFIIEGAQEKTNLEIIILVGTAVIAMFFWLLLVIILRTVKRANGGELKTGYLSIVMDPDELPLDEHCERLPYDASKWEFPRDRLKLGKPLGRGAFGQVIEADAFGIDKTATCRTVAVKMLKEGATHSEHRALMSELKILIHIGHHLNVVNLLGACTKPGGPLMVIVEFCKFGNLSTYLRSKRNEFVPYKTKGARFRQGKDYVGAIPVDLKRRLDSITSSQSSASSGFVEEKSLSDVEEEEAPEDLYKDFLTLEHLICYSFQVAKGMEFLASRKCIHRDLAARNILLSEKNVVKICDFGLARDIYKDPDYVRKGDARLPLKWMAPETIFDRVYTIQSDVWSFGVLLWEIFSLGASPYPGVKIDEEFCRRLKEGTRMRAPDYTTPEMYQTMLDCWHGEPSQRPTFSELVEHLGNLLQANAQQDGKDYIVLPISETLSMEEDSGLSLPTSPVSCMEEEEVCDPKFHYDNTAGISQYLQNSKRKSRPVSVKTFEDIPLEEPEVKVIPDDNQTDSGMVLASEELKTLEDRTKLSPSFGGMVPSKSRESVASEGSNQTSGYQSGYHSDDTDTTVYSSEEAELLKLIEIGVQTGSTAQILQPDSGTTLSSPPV

[15] = molecular target: 456 kinases (of these 395 non-mutant kinases) (Homo sapiens, UniProt P51817); assay: Kinase Profiling (KINOMEscan); type: binding; settings: PRKX; 10 μM
[16] = molecular target: 456 kinases (of these 395 non-mutant kinases) (Homo sapiens, UniProt P51957); assay: Kinase Profiling (KINOMEscan); type: binding; settings: NEK4; 10 μM
[17] = molecular target: 456 kinases (of these 395 non-mutant kinases) (Homo sapiens, UniProt Q00535); assay: Kinase Profiling (KINOMEscan); type: binding; settings: CDK5; 10 μM
[18] = molecular target: 456 kinases (of these 395 non-mutant kinases) (Homo sapiens, UniProt Q07002); assay: Kinase Profiling (KINOMEscan); type: binding; settings: PCTK3; 10 μM
[19] = molecular target: 456 kinases (of these 395 non-mutant kinases) (Homo sapiens, UniProt Q2M2I8); assay: Kinase Profiling (KINOMEscan); type: binding; settings: AAK1; 10 μM
[20] = molecular target: 456 kinases (of these 395 non-mutant kinases) (Homo sapiens, UniProt Q8IW41); assay: Kinase Profiling (KINOMEscan); type: binding; settings: MAPKAPK5; 10 μM
[21] = molecular target: 456 kinases (of these 395 non-mutant kinases) (Homo sapiens, UniProt Q9BVS4); assay: Kinase Profiling (KINOMEscan); type: binding; settings: RIOK2; 10 μM
[22] = molecular target: 456 kinases (of these 395 non-mutant kinases) (Homo sapiens, UniProt Q9H2X6); assay: Kinase Profiling (KINOMEscan); type: binding; settings: HIPK2; 10 μM
[23] = molecular target: 456 kinases (of these 395 non-mutant kinases) (Homo sapiens, UniProt Q9UM73, L1196M); assay: Kinase Profiling (KINOMEscan); type: binding; settings: ALK(L1196M); 10 μM
456 kinases (of these 395 non-mutant kinases) (Homo sapiens, UniProt Q9UM73, L1196M), sequence (Q9UM73 19-1620 L1196M limits assumed): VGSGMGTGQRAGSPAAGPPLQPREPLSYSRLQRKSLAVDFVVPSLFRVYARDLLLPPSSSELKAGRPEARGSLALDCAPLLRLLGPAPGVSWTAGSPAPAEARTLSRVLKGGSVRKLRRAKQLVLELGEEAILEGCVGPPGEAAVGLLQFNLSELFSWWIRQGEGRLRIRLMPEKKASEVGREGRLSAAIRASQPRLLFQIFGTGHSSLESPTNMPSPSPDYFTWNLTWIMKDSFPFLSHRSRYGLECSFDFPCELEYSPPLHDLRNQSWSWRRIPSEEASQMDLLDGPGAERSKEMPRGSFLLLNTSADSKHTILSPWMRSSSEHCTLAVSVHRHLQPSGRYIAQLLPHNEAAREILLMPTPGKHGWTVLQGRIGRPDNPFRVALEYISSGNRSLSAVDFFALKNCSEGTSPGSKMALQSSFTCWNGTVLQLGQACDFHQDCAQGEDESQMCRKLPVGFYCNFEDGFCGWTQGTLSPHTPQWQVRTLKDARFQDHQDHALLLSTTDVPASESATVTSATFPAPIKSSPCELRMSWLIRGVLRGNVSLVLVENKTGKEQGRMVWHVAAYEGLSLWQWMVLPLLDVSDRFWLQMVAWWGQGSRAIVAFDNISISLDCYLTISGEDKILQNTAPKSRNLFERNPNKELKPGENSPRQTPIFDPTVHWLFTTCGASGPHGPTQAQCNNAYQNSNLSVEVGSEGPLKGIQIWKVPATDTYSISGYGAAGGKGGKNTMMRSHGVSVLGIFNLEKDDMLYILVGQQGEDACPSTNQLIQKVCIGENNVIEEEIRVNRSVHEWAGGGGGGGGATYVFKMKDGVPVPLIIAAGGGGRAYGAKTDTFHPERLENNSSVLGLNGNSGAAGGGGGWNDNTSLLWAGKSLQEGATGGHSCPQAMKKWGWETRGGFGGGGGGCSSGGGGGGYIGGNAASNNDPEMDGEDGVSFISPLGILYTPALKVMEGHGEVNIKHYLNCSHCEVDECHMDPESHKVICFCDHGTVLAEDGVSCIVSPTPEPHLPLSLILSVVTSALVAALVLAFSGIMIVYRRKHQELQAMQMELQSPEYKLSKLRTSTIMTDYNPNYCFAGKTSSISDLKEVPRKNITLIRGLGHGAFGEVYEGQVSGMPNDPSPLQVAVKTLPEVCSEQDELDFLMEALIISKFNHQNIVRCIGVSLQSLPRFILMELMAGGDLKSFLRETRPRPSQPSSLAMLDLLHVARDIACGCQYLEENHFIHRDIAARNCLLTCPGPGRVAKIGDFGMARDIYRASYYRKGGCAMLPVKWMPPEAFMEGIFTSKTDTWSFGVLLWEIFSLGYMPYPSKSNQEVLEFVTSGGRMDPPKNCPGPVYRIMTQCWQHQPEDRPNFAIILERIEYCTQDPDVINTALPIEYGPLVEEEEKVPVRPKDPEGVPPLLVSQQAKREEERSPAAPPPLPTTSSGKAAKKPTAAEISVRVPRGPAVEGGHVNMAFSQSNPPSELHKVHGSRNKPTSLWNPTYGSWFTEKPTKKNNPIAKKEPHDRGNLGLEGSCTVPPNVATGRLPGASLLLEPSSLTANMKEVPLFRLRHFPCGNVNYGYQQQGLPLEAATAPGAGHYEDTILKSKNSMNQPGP

[24] = molecular target: 456 kinases (of these 395 non-mutant kinases) (Homo sapiens, UniProt Q9Y616); assay: Kinase Profiling (KINOMEscan); type: binding; settings: IRAK3; 10 μM
[25] = molecular target: 456 kinases (of these 395 non-mutant kinases) (Mycobacterium tuberculosis, UniProt P9WI81); assay: Kinase Profiling (KINOMEscan); type: binding
456 kinases (of these 395 non-mutant kinases) (Mycobacterium tuberculosis, UniProt P9WI81), sequence (P9WI81 2-626 limits assumed, change not shown): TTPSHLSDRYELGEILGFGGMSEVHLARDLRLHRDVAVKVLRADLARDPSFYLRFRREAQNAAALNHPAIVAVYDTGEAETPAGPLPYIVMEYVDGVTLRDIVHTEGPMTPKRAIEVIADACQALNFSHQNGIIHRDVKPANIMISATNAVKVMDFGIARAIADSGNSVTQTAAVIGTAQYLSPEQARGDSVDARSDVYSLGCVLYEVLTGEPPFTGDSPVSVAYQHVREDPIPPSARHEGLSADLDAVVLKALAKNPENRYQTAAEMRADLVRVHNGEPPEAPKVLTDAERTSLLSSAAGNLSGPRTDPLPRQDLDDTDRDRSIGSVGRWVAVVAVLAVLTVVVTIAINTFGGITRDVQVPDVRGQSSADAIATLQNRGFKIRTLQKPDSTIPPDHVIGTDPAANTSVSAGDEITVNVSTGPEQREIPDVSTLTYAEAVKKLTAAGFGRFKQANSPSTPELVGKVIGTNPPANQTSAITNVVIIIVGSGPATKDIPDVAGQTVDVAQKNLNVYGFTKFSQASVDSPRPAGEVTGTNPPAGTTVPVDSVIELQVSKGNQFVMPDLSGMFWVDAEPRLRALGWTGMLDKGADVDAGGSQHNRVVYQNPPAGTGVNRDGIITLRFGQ

CCc1ccccc1NC(=O)c1c(C)nsc1Nc1cnc2cc(F)ccc2n1 [Example 20, N-(2-Ethylphenyl)-5-[(6-fluoroquinoxalin-2-yl)amino]-3-methyl-1,2-thiazole-4-carboxamide]
IC50 [1]: 500 nM
IC50 [2]: 440 nM
IC50 [3]: 600 nM
IC50 [4]: 550 nM
IC50 [5]: 530 nM
% Ctrl @ 10 μM [6]: 84 % Ctrl
% Ctrl @ 10 μM [7]: 86 % Ctrl
% Ctrl @ 10 μM [8]: 66 % Ctrl
% Ctrl @ 10 μM [9]: 90 % Ctrl
% Ctrl @ 10 μM [10]: 100 % Ctrl
% Ctrl @ 10 μM [11]: 96 % Ctrl
% Ctrl @ 10 μM [12]: 68 % Ctrl
% Ctrl @ 10 μM [13]: 77 % Ctrl
% Ctrl @ 10 μM [14]: 100 % Ctrl
% Ctrl @ 10 μM [15]: 75 % Ctrl
% Ctrl @ 10 μM [16]: 99 % Ctrl
% Ctrl @ 10 μM [17]: 100 % Ctrl
% Ctrl @ 10 μM [18]: 82 % Ctrl
% Ctrl @ 10 μM [19]: 68 % Ctrl
% Ctrl @ 10 μM [20]: 100 % Ctrl
% Ctrl @ 10 μM [21]: 77 % Ctrl
% Ctrl @ 10 μM [22]: 100 % Ctrl
% Ctrl @ 10 μM [23]: 100 % Ctrl
% Ctrl @ 10 μM [24]: 100 % Ctrl
% Ctrl @ 10 μM [25]: 100 % Ctrl

— patent publication US9682995B2, “Amino-substituted isothiazoles” (BAYER PHARMA AKTIENGESELLSCHAFT, priority 2013, dated 2017)
